For experiment [1], the system named is NIH/3T3 cells transfected with control vector. Put plainly: NIH/3T3 mock cell proliferation assay (counter assay, CellTiter Glo). Type of experiment: cell-based. The note with it: Mus musculus, NIH3T3, 72 h, 72-hr incubation, top concentration 30 μM, counter assay for general toxicity, read-out: NIH/3T3 MOCK CTG (IC50). The method, then:
NIH/3T3 Mock Cell Proliferation Assay
In day 1, 90 μL of cell suspension (NIH/3T3 cells transfected with the same control vector as in the above two proliferation assays) (total 30,000 cells per well in growth medium (DMEM containing 1% Glutamax, 10% FBS and 1% Pen/Strep)) was seeded in a 96-well plate and then incubated overnight at 37° C. and 5% CO2. In day 2, 10 μL of growth medium containing 10-fold stock solution of testing compound was added into cell cultures (9 dose points with 3× serial dilution, starting with 30 μM, 0.3% DMSO final). After 72-hr incubation at 37° C. and 5% CO2, in day 5 a volume of 50 μL CellTiter Glo (CTG) reagent was added into cell-containing 96-well plate and the plate was incubated at room temperature for 10 minutes before RLUs (relative light unit) were measured on a microplate reader with luminescence detection module.
(In general: In ATP-based viability assays light output follows the ATP content of the culture.)

Experiment [2] addresses T1, human FGFR3 wild type enzyme (cytoplasmic domain) (Homo sapiens, UniProt P22607).
T1 construct: human FGFR3 wild type enzyme (cytoplasmic domain, from Carna Biosciences); purchased Carna Biosciences
The experiment in a line: FGFR3 wild type mobility shift assay (enzymatic assay). The settings on record: 75 μM ATP, 50 minutes at 30° C, Caliper EZ reader II. Format: biochemical. From the text: FGFR3 Wild Type Mobility Shift Assay (Enzymatic Assay)

The target of experiment [3] is T2, NIH/3T3 cells overexpressing FGFR3 WT-TACC3 fusion protein (Homo sapiens, UniProt P22607).
T2 construct: NIH/3T3 FGFR3 WT-TACC3 CTG (IC50); other: 72-hr incubation, CellTiter Glo, top concentration 10 μM; fused on or other part: Q9Y6A5 (Transforming acidic coiled-coil-containing protein 3)
Put plainly: NIH/3T3 FGFR3 WT-TACC3 cell proliferation assay (CellTiter Glo). Type of experiment: cell-based. The note with it: 72-hr incubation, top concentration 10 μM, read-out: NIH/3T3 FGFR3 WT-TACC3 CTG (IC50). The method, then: NIH/3T3 FGFR3 WT-TACC3 Cell Proliferation Assay
In day 1, 90 μL of cell suspension (NIH/3T3 cells overexpressing FGFR3 WT-TACC3 fusion protein) (total 30,000 cells per well in growth medium (DMEM containing 1% Glutamax, 10% FBS and 1% Pen/Strep)) was seeded in a 96-well plate and then incubated overnight at 37° C. and 5% CO2. […] After 72-hr incubation at 37° C. and 5% CO2, in day 5 a volume of 50 μL CellTiter Glo (CTG) reagent was added into cell-containing 96-well plate and the plate was incubated at room temperature for 10 minutes before RLUs (relative light unit) were measured on a microplate reader with luminescence detection module.

18 molecules from patent US11691970B2, “Pyrazolopyridinone compounds” (Janssen Pharmaceutica NV, priority 2017, dated 2023) can be followed below.

Structures can show the parent of a compound that is named as a salt.

T1 sequence (P22607 397-806 limits assumed): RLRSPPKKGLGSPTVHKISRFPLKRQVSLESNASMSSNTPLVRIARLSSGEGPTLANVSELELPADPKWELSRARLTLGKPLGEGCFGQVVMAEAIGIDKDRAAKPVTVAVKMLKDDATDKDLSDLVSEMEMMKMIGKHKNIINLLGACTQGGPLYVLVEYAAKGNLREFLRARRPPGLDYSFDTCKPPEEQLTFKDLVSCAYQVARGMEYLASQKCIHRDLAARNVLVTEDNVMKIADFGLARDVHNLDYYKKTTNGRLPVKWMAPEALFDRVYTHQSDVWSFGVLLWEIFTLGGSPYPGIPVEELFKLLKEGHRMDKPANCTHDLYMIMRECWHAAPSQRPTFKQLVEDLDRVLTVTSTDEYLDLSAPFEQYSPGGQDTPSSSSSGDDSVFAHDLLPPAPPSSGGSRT
T2 sequence (P22607 whole entry, change not shown, the tested form may be a part): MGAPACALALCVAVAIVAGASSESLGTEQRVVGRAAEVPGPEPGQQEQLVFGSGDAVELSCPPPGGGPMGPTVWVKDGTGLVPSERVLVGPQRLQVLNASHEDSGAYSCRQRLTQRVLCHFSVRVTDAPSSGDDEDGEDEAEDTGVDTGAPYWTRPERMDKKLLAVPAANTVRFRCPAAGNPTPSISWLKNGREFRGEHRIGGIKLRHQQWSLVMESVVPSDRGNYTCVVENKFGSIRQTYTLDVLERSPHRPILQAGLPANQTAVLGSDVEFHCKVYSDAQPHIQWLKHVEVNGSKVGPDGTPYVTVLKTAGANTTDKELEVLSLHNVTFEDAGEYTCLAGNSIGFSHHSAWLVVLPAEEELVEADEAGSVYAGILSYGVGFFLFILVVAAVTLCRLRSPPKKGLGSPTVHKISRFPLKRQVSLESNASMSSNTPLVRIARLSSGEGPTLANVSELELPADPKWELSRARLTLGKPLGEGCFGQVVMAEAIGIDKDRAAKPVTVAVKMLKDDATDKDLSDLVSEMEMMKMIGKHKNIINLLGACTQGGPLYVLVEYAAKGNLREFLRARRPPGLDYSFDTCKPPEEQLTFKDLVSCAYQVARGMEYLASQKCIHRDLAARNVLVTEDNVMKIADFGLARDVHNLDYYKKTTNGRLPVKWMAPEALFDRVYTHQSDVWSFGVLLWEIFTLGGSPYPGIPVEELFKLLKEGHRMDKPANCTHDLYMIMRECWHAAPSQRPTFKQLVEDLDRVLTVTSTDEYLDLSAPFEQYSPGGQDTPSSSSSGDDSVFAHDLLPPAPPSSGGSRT

Consider `COCC(Nc1c(-c2nc3c(F)cc(N4CCOCC4)cc3[nH]2)c(=O)[nH]c2cn(C)nc12)c1ncccn1` (single isomer, unassigned) [Compound 29, (S*)-6-(4-fluoro-6-morpholino-1H-benzo[d]imidazol-2-yl)-7-((2-methoxy-1-(pyrimidin-2-yl)ethyl)amino)-2-methyl-2H-pyrazolo[4,3-b]pyridin-5(4H)-one], for which the IC50 in experiment [1] came to 1.53 µM; in experiment [2] it was 0.00856 µM. Besides, in experiment [3], the GI50 is 0.0983 µM.
`C[C@@H](Nc1c(-c2nc3ccc(N4CCN(C)CC4)cc3[nH]2)c(=O)[nH]c2cn(C)nc12)c1ncccc1C(F)(F)F` (single isomer, unassigned) [Compound 32, (R*)-2-methyl-6-(6-(4-methylpiperazin-1-yl)-1H-benzo[d]imidazol-2-yl)-7-((1-(3-(trifluoromethyl)pyridin-2-yl)ethyl)amino)-2H-pyrazolo[4,3-b]pyridin-5(4H)-one 0.2 formate]: the IC50 in experiment [1] is 4.23 µM; in experiment [2], 0.00429 µM. In addition, the GI50 in experiment [3] amounted to 0.195 µM.
On to `CC(Nc1c(-c2nc3ccc(N4CCCCC4)cc3[nH]2)c(=O)[nH]c2cn(C)nc12)c1ncccn1` (single isomer, unassigned) [Compound 34, (S*)-2-methyl-6-(6-(piperidin-1-yl)-1H-benzo[d]imidazol-2-yl)-7-((1-(pyrimidin-2-yl)-ethyl)amino)-2H-pyrazolo[4,3-b]pyridin-5(4H)-one], for which the figures for the IC50 in experiment [1] and in experiment [2] were 0.734 µM and 0.00122 µM, respectively. Moreover, the GI50 in experiment [3] is 0.0233 µM.
With `CC(Nc1c(-c2nc3ccc(OC4CCOCC4)cc3[nH]2)c(=O)[nH]c2cn(C)nc12)c1cocn1` (single isomer, unassigned) [Compound 36, (S*)-2-methyl-7-((1-(oxazol-4-yl)ethyl)amino)-6-(6-((tetrahydro-2H-pyran-4-yl)oxy)-1H-benzo[d]imidazol-2-yl)-2H-pyrazolo[4,3-b]pyridin-5(4H)-one], the IC50 in experiment [1] was 0.753 µM; in experiment [2], 0.000839 µM. Besides, the GI50 in experiment [3] was 0.0496 µM.
As for `CCC(Nc1c(-c2nc3ccc(N4CCOCC4)cc3[nH]2)c(=O)[nH]c2cn(C)nc12)c1ncccn1` (single isomer, unassigned) [Compound 39, (S*)-2-methyl-6-(6-morpholino-1H-benzo[d]imidazol-2-yl)-7-((1-(pyrimidin-2-yl)-propyl)amino)-2H-pyrazolo[4,3-b]pyridin-5(4H)-one], the IC50 in experiment [1] is 0.458 µM; in experiment [2] it was 0.000881 µM. Besides, the GI50 in experiment [3] was found to be 0.0163 µM.
The corresponding values for `COc1cc(N2CCOCC2)cc2[nH]c(-c3c(NC(C)c4ncccn4)c4nn(C)cc4[nH]c3=O)nc12` (single isomer, unassigned) [Compound 51, (S*)-6-(4-methoxy-6-morpholino-1H-benzo[d]imidazol-2-yl)-2-methyl-7-((1-(pyrimidin-2-yl)ethyl)amino)-2,4-dihydro-5H-pyrazolo[4,3-b]pyridin-5-one] are 1.16 µM, 0.000788 µM and 0.0446 µM.
With `Cc1cc2nc(-c3c(N[C@@H](C)c4ncccn4)c4nn(C)cc4[nH]c3=O)[nH]c2cc1C(=O)N1CCCC1` [Compound 2], the IC50 was 0.998 µM in experiment [1] and 0.000903 µM in experiment [2]. Also, in experiment [3], the GI50 worked out at 0.0213 µM.
Turning to `CCn1cc2[nH]c(=O)c(-c3nc4cc(C)c(N5CCOCC5)cc4[nH]3)c(N[C@@H](C)c3ncccn3)c2n1` [Compound 5, (S)-2-ethyl-6-(5-methyl-6-morpholino-1H-benzo[d]imidazol-2-yl)-7-((1-(pyrimidin-2-yl)-ethyl)amino)-2,4-dihydro-5H-pyrazolo[4,3-b]pyridin-5-one], the figures for the IC50 in experiment [1] and in experiment [2] were 1.05 µM and 0.00178 µM, respectively. The GI50 in experiment [3] turned out to be 0.0197 µM.
Take `CCn1cc2[nH]c(=O)c(-c3nc4c(F)cc(N5CCOCC5)cc4[nH]3)c(N[C@@H](C)c3ncccn3)c2n1` [Compound 6, (S)-2-ethyl-6-(4-fluoro-6-morpholino-1H-benzo[d]imidazol-2-yl)-7-((1-(pyrimidin-2-yl)-ethyl)amino)-2,4-dihydro-5H-pyrazolo[4,3-b]pyridin-5-one]: the results for the IC50 in experiment [1] and in experiment [2] were 1.28 µM and 0.00116 µM, respectively. Moreover, in experiment [3], the GI50 turned out to be 0.0138 µM.
In the case of `C[C@H](Nc1c(-c2nc3ccc(C4CCOCC4)c(F)c3[nH]2)c(=O)[nH]c2cn(C)nc12)c1ncccn1` [Compound 13, (S)-6-(7-fluoro-6-(tetrahydro-2H-pyran-4-yl)-1H-benzo[d]imidazol-2-yl)-2-methyl-7-((1-(pyrimidin-2-yl)ethyl)amino)-2H-pyrazolo[4,3-b]pyridin-5(4H)-one], the IC50 is 2.1 µM in experiment [1] and 0.00115 µM in experiment [2]. Also, the GI50 in experiment [3] came to 0.0221 µM.
`C[C@H](Nc1c(-c2nc3ccc(N4CCN(C)CC4)cc3[nH]2)c(=O)[nH]c2cn(C)nc12)c1ccccc1` [Compound 18, (S)-2-Methyl-6-(6-(4-methylpiperazin-1-yl)-1H-benzo[d]imidazol-2-yl)-7-((1-phenylethyl)amino)-2H-pyrazolo[4,3-b]pyridin-5(4H)-one]: the results for the IC50 in experiment [1] and in experiment [2] were 0.68 µM and 0.00202 µM, respectively. The GI50 in experiment [3] came out at 0.0743 µM.
Consider `C[C@H](Nc1c(-c2nc3ccc(N4CCOC(F)(F)C4)cc3[nH]2)c(=O)[nH]c2cn(C)nc12)c1ncccn1` [Compound 25, (S)-6-(6-(2,2-difluoromorpholino)-1H-benzo[d]imidazol-2-yl)-2-methyl-7-((1-(pyrimidin-2-yl)ethyl)amino)-2H-pyrazolo[4,3-b]pyridin-5(4H)-one], for which the IC50 is 1.21 µM in experiment [1] and 0.000495 µM in experiment [2]. Further, the GI50 in experiment [3] amounted to 0.0223 µM.
In the case of `C[C@H](Nc1c(-c2nc3ccc(N4CCCCC4=O)c(F)c3[nH]2)c(=O)[nH]c2cn(C)nc12)c1ncccn1` [Compound 27, (S)-6-(7-fluoro-6-(2-oxopiperidin-1-yl)-1H-benzo[d]imidazol-2-yl)-2-methyl-7-((1-(pyrimidin-2-yl)ethyl)amino)-2H-pyrazolo[4,3-b]pyridin-5(4H)-one], the IC50 in experiment [1] was determined as 1.37 µM; in experiment [2], 0.00061 µM. The GI50 in experiment [3] stood at 0.0999 µM.
As to `C[C@H](Nc1c(-c2nc3ccc(N4CCCCC4)cc3[nH]2)c(=O)[nH]c2cn(C)nc12)c1ccccn1` [Compound 33, (S)-2-methyl-6-(6-(piperidin-1-yl)-1H-benzo[d]imidazol-2-yl)-7-((1-(pyridin-2-yl)ethyl)-amino)-2H-pyrazolo[4,3-b]pyridin-5(4H)-one], the IC50 in experiment [1] worked out at 6.53 µM; in experiment [2], 0.0175 µM. In addition, the GI50 in experiment [3] was determined as 0.258 µM.
In the case of `CCn1cc2[nH]c(=O)c(-c3nc4cnc(N5CCOCC5)cc4[nH]3)c(N[C@@H](C)c3ncccn3)c2n1` [Compound 43, (S)-2-ethyl-6-(6-morpholino-1H-imidazo[4,5-c]pyridin-2-yl)-7-((1-(pyrimidin-2-yl)ethyl)-amino)-2H-pyrazolo[4,3-b]pyridin-5(4H)-one], the results for the IC50 in experiment [1] and in experiment [2] were 0.415 µM and 0.00104 µM, respectively. The GI50 in experiment [3] stood at 0.0126 µM.
The corresponding values for `CCn1cc2[nH]c(=O)c(-c3nc4ccc(N5CCOCC5)cc4[nH]3)c(N[C@@H](C)c3ncccn3)c2n1` [Compound 46, (S)-2-ethyl-6-(6-morpholino-1H-benzo[d]imidazol-2-yl)-7-((1-(pyrimidin-2-yl)ethyl)-amino)-2H-pyrazolo[4,3-b]pyridin-5(4H)-one] are 1.07 µM, 0.000891 µM and 0.0132 µM.
On to `CCn1cc2[nH]c(=O)c(-c3nc4cnc(N5CCOCC5)cc4[nH]3)c(N[C@@H](C)c3ccccn3)c2n1` [Compound 47, (S)-2-ethyl-6-(6-morpholino-1H-imidazo[4,5-c]pyridin-2-yl)-7-((1-(pyridin-2-yl)ethyl)-amino)-2,4-dihydro-5H-pyrazolo[4,3-b]pyridin-5-one], for which the IC50 in experiment [1] came to 1.04 µM; in experiment [2], 0.00203 µM. For the same molecule, in experiment [3], the GI50 was 0.0174 µM.
`CCn1cc2[nH]c(=O)c(-c3nc4c(F)cc(N5CCN(C)CC5)cc4[nH]3)c(N[C@@H](C)c3ncccn3)c2n1` [Compound 48, (S)-2-ethyl-6-(4-fluoro-6-(4-methylpiperazin-1-yl)-1H-benzo[d]imidazol-2-yl)-7-((1-(pyrimidin-2-yl)ethyl)amino)-2H-pyrazolo[4,3-b]pyridin-5(4H)-one]: the IC50 in experiment [1] is 0.352 µM; in experiment [2], 0.000738 µM. In addition, the GI50 in experiment [3] was found to be 0.00904 µM.
